Measured values as given in patent US10111437B2, “Substituted guanidines as fungicides” (Nippon Soda Co., Ltd., priority 2015, dated 2018).

What was measured:
[1] = test system: Tomato late blight fungus (Phytophthora infestans); assay: whole plant or invertebrate; format: in vivo; conditions: foliar, 96 h, read-out: control value
[2] = test system: wheat leaf rust fungus (Puccinia recondita); assay: Wheat leaf rust control test (foliar spray on wheat seedlings); format: in vivo; conditions: 240 h, 125 ppm active ingredient, sprayed on wheat seedlings (variety Norin 61) before inoculation, 10 days, vs untreated
[3] = test system: cucumber gray mold fungus (Botrytis cinerea); assay: Cucumber gray mold control test (foliar spray on cucumber seedlings); conditions: in Cucumis sativus, 96 h, read-out: control value
[4] = test system: Apple scab fungus (Venturia inaequalis); assay: Apple scab control test (foliar spray on apple seedlings); format: in vivo; conditions: 125 ppm active ingredient, sprayed on apple seedlings (variety Orin) before inoculation, vs untreated
Protocol: The dilution was sprayed to apple seedlings (variety “Orin”, 3 to 4 leaf stage) grown in clay pots. […] The control value was calculated by the following equation. [formula]

Measured: pest or weed control at 125 ppm

N=C(N)NCCCCCCCCNC(=N)NCCCCCOc1ccc(C2=NCCCN2)cc1 [compound 248]
≥ 75%: [1] | [2] | [3]

N=C(N)c1ccc(OCCCCN2CCN(CCCCOc3ccc(C(=N)N)cc3)C2=N)cc1 [compound 6, 4-[4-[3-[4-(4-carbamimidoylphenoxy)butyl]-2-imino-imidazolidin-1-yl]butoxy]benzamidine]
≥ 75%: all assays above

CNC(=N)c1ccc(OCCCn2ccn(CCCOc3ccc(C(=N)N)cc3)c2=N)cc1 [compound 122]
≥ 75%: all assays above

N=C(N)c1ccc(OCCCn2ccn(CCCSc3ccc(C(=N)N)cc3)c2=N)cc1 [compound 173]
≥ 75%: all assays above

CN(C)/C(=N\CCCOc1ccc(C(=N)N)cc1)NCCCOc1ccc(C(=N)N)cc1 [compound 130]
≥ 75%: all assays above

N=C(N)NCCCCCCCNC(=N)NCCCCCOc1ccc(C(=N)N)cc1 [compound 186]
≥ 75%: all assays above

N=C(N)NCCCCCCCCCNC(=N)NCCCOc1ccc(C2=NCCCN2)cc1 [compound 218]
≥ 75%: [1] | [2] | [3]

N=C(N)NCCCCCCCCNC(=N)NCCCCCOc1ccc(C(=N)N)cc1 [compound 171]
≥ 75%: all assays above

N=C(N)NCCCCCCCCNC(=N)NCCCOCc1ccc(C2=NCCCN2)cc1 [compound 222]
≥ 75%: all assays above

N=C(NCCCCOc1ccc(C(=N)N)cc1)NCCCCOc1ccc(C(=N)N)cc1 [compound 10, 4-[4-[[N-[4-(4-carbamimidoylphenoxy)butyl]carbamimidoyl]amino]butoxy]benzamidine]
≥ 75%: all assays above

N=C(N)c1ccc(OCCCn2ccn(CCCOc3ccc(C(=N)N)c(F)c3)c2=N)cc1F [compound 103]
≥ 75%: all assays above

N=C(N)NCCCCCCCNC(=N)NCCCSc1ccc(C(=N)N)cc1 [compound 177]
≥ 75%: all assays above

CN=C(NCCCOc1ccc(C(=N)N)cc1)NCCCOc1ccc(C(=N)N)cc1 [compound 57, 4-[3-[[N-[3-(4-carbamimidoylphenoxy)propyl]-N′-methyl-carbamimidoyl]amino]propoxy]benzamidine]
≥ 75%: all assays above

N=C(N)NCCCCCCCNC(=N)NCCCCOc1ccc(C(=N)N)cn1 [compound 32, 6-(4-(3-(7-guanidinoheptyl)guanidino)butoxy)nicotinimidamide]
≥ 75%: all assays above

N=C(N)NCCCCCCCCNC(=N)N1CCC(Oc2ccc(C3=NCCCN3)cc2)CC1 [compound 264]
≥ 75%: all assays above

N=C(N)NCCCCCCCNC(=N)NCCCC#Cc1nc(C(=N)N)cs1 [compound 50, 2-[5-[[N-(7-guanidinoheptyl)carbamimidoyl]amino]pent-1-ynyl]thiazole-4-carboxamidine]
≥ 75%: [4] | [2] | [3]

N=C(N)NCCCCCCCCn1ccn(CCOc2ccc(C(=N)N)cc2)c1=N [compound 281]
≥ 75%: [1] | [2] | [3]

N=C(N)NCCCCCCCCNC(=N)NCCCOc1ccc(C(=N)N)cn1 [compound 120]
≥ 75%: all assays above

N=C(N)NCCCCCCCCNC(=N)NCCCCOc1ccc(C2=NCCCN2)cn1 [compound 275]
≥ 75%: all assays above

CN1CCCN=C1c1ccc(OCCNC(=N)NCCCCCCCCNC(=N)N)cc1 [compound 300]
≥ 75%: all assays above

N=C(N)NCCCCCCCNC(=N)NCCOCc1ccc(C(=N)N)cc1 [compound 228]
≥ 75%: all assays above

N=C(N)NCCCCCCCCn1ccn(CCCCOc2ccc(C(=N)N)cc2)c1=N [compound 216]
≥ 75%: [1] | [2] | [3]

N=C(N)NCCCCCCCCNC(=N)NCCOc1ccc(C2=NCCCN2)nc1 [compound 288]
≥ 75%: all assays above

N=C(N)NCCCCCCCCNC(=N)NCCOCc1ccc(C(=N)N)cc1 [compound 200]
≥ 75%: all assays above

N=C(N)NCCCCCCCCNC(=N)NCC#Cc1ccc(C(=N)N)cc1 [compound 165]
≥ 75%: all assays above

N=C(N)NCCCCCCCn1ccn(CCCOc2ccc(C(=N)N)cc2)c1=N [compound 25, 4-[3-[3-(7-guanidinoheptyl)-2-imino-imidazol-1-yl]propoxy]benzamidine]
≥ 75%: all assays above

N=C(N)NCCCCCCCCNC(=N)NCCOc1ccc(C2=NCC(N)CN2)cc1 (stereo not shown) [compound 285]
≥ 75%: all assays above

CC1(C)CN=C(c2ccc(OCCCCNC(=N)NCCCCCCCCNC(=N)N)cc2)NC1 [compound 258]
≥ 75%: [1] | [2] | [3]

N=C(N)NCCCCCCCNC(=N)NCCCCOc1ccc(C2=NCCN2)cc1 [compound 244]
≥ 75%: [4] | [2] | [3]

N=C(N)NCCCCCCCCNC(=N)NCc1ccc(C2=NCCCN2)cc1 [compound 262]
≥ 75%: [4] | [2] | [3]

N=C(N)NCCCCCCCCNC(=N)NCCOc1ccc2cc(C3=NCCCN3)ccc2c1 [compound 292]
≥ 75%: [4] | [1] | [2]

N=C(N)NCCCCCCCCNC(=N)NCCCc1cc2cc(C3=NCCCN3)ccc2o1 [compound 260]
≥ 75%: [1] | [2] | [3]

N=C(N)NCCCCCCCCNC(=N)NCCCCOc1ccc(C2=NCCCN2)cc1 [compound 204]
≥ 75%: [1] | [2] | [3]

CN(CCCOc1ccc(C(=N)N)cc1)C(=N)NCCCOc1ccc(C(=N)N)cc1 [compound 72]
≥ 75%: [4] | [2] | [3]

N=C(N)c1ccc(OCCCn2ccn(CCCOc3ccc(C(=N)N)cc3)c2=N)cc1 [compound 89]
≥ 75%: [4] | [1] | [2]

N=C(N)NCCCCCCCCn1ccn(CCOc2ccc(C3=NCCCN3)cc2)c1=N [compound 270]
≥ 75%: [4] | [1] | [2]

N=C(N)NCCCCCCCCNC(=N)NCC1=CC2C=C(C3=NCCCN3)C=CC2O1 (stereo not shown) [compound 268]
≥ 75%: [1] | [2] | [3]

N=C(N)NCCCCCCCCNC(=N)NCCCc1ccc(C2=NCCCN2)cc1 [compound 252]
≥ 75%: [1] | [2] | [3]

N=C(N)NCCCCCCCNC(=N)NCCOc1ccc(C(=N)N)cc1 [compound 236]
≥ 75%: [4] | [2] | [3]

N=C(N)NCCCCCCCNC(=N)NCCOCc1cc(C(=N)N)cs1 [compound 48, 5-[2-[[N-(7-guanidinoheptyl)carbamimidoyl]amino]ethoxymethyl]thiophene-3-carboxamidine]
≥ 75%: [4] | [2] | [3]
